# Measured values as given in US12448399B2, “Cereblon-based KRAS degrading PROTACs and uses related thereto” (Arvinas Operations, Inc., priority 2023, dated 2025).
# Target: T1, KRas-G12D (Homo sapiens, UniProt P01116, G12D)
# T1 construct: insert the HiBiT tag onto the N-terminus of one or more of the endogenous KRas alleles; host or cells: AsPC-1 HiBiT-KRasG12D knock-in clone (one tagged allele, two untagged KRasG12D alleles)
# Experiment: HiBiT Degradation Assay (G12D), AsPC-1 HiBiT-KRasG12D cells, 24 hr
# Type: cell-based
# Details: for Dmax: ASPC1, AsPC-1 cells, maximum degradation observed; for DC50: AsPC-1 cells
# Procedure, shortened: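 Degradation was read after 24 hr compound exposure (0.5% DMSO, 37° C) by Nano-Glo HiBiT lytic luminescence in AsPC-1 cells carrying a HiBiT tag on one of three KRasG12D alleles. Signal relative to DMSO gave DC50 and Dmax by 4-parameter fit; alamar blue fluorescence monitored cytotoxicity.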
# T1 sequence (P01116 1-188 isoform P01116-2 G12D): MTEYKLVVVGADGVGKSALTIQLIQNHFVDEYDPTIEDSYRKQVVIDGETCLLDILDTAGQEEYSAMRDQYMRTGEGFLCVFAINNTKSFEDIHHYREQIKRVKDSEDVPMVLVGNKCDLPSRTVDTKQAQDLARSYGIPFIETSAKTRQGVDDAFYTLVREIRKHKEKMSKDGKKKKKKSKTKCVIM
Compound,Dmax,DC50
"C#Cc1c(F)ccc2cc(O)cc(-c3ncc4c(N5CC6CCC(C5)N6)nc(OCC5(CN6CCN(CC7CCN(c8ccc9c(c8)n(C)c(=O)n9C8CCC(=O)NC8=O)CC7)CC6)CC5)nc4c3F)c12 (stereo not shown) [Compound 188, 3-{5-[4-({4-[(1-{[(4-{3,8-diazabicyclo[3.2.1]octan-3-yl}-7-(8-ethynyl-7-fluoro-3-hydroxynaphthalen-1-yl)-8-fluoropyrido[4,3-d]pyrimidin-2-yl)oxy]methyl}cyclopropyl)methyl]piperazin-1-yl}methyl)piperidin-1-yl]-3-methyl-2-oxo-2,3-dihydro-1H-1,3-benzodiazol-1-yl}piperidine-2,6-dione]",> 70%,< 5.1 µM
"C#Cc1c(F)ccc2cc(O)cc(-c3ncc4c(N5CC6CCC(C5)N6)nc(OCC5(CN6CCC(CN7CCN(c8ccc9c(c8)n(C)c(=O)n9C8CCC(=O)NC8=O)CC7)CC6)CC5)nc4c3F)c12 (stereo not shown) [Compound 189, 3-{5-[4-({1-[(1-{[(4-{3,8-diazabicyclo[3.2.1]octan-3-yl}-7-(8-ethynyl-7-fluoro-3-hydroxynaphthalen-1-yl)-8-fluoropyrido[4,3-d]pyrimidin-2-yl)oxy]methyl}cyclopropyl)methyl]piperidin-4-yl}methyl)piperazin-1-yl]-3-methyl-2-oxo-2,3-dihydro-1H-1,3-benzodiazol-1-yl}piperidine-2,6-dione]",> 70%,< 5.1 µM
"C#Cc1c(F)ccc2cc(O)cc(-c3ncc4c(N5CC6CCC(C5)N6)nc(OCC5(CN6CCC(CC7CCN(c8ccc9c(c8Cl)CN(C8CCC(=O)NC8=O)C9=O)CC7)CC6)CC5)nc4c3F)c12 (stereo not shown) [Compound 190, 3-{4-chloro-5-[4-({1-[(1-{[(4-{3,8-diazabicyclo[3.2.1]octan-3-yl}-7-(8-ethynyl-7-fluoro-3-hydroxynaphthalen-1-yl)-8-fluoropyrido[4,3-d]pyrimidin-2-yl)oxy]methyl}cyclopropyl)methyl]piperidin-4-yl}methyl)piperidin-1-yl]-1-oxo-2,3-dihydro-1H-isoindol-2-yl}piperidine-2,6-dione]",> 70%,< 5.1 µM
"C#Cc1c(F)ccc2cc(O)cc(-c3ncc4c(N5CC6CCC(C5)N6)nc(OCC5(CN6CCC(CC7CCN(c8ccc9c(c8)n(C(C)C)c(=O)n9C8CCC(=O)NC8=O)CC7)CC6)CC5)nc4c3F)c12 (stereo not shown) [Compound 191, 3-{5-[4-({1-[(1-{[(4-{3,8-diazabicyclo[3.2.1]octan-3-yl}-7-(8-ethynyl-7-fluoro-3-hydroxynaphthalen-1-yl)-8-fluoropyrido[4,3-d]pyrimidin-2-yl)oxy]methyl}cyclopropyl)methyl]piperidin-4-yl}methyl)piperidin-1-yl]-2-oxo-3-(propan-2-yl)-2,3-dihydro-1H-1,3-benzodiazol-1-yl}piperidine-2,6-dione]",> 70%,< 5.1 µM
"C#Cc1c(F)ccc2cc(O)cc(-c3ncc4c(N5CC6CCC(C5)N6)nc(OCC5(CN6CCC(CC7CCN(c8ccc9c(c8F)CN(C8CCC(=O)NC8=O)C9=O)CC7)CC6)CC5)nc4c3F)c12 (stereo not shown) [Compound 192, 3-{5-[4-({1-[(1-{[(4-{3,8-diazabicyclo[3.2.1]octan-3-yl}-7-(8-ethynyl-7-fluoro-3-hydroxynaphthalen-1-yl)-8-fluoropyrido[4,3-d]pyrimidin-2-yl)oxy]methyl}cyclopropyl)methyl]piperidin-4-yl}methyl)piperidin-1-yl]-4-fluoro-1-oxo-2,3-dihydro-1H-isoindol-2-yl}piperidine-2,6-dione]",> 70%,< 5.1 µM
"C#Cc1c(F)ccc2cc(O)cc(-c3ncc4c(N5CC6CCC(C5)N6)nc(OCC5(CN6CCC7(CCN(CC8CCN(c9ccc%10c(c9)n(C)c(=O)n%10C9CCC(=O)NC9=O)CC8)CC7)CC6)CC5)nc4c3F)c12 (stereo not shown) [Compound 193, 3-[5-[4-[[3-[[1-[[4-(3,8-diazabicyclo[3.2.1]octan-3-yl)-7-(8-ethynyl-7-fluoro-3-hydroxy-1-naphthyl)-8-fluoro-pyrido[4,3-d]pyrimidin-2-yl]oxymethyl]cyclopropyl]methyl]-3,9-diazaspiro[5.5]undecan-9-yl]methyl]-1-piperidyl]-3-methyl-2-oxo-benzimidazol-1-yl]piperidine-2,6-dione]",> 70%,< 5.1 µM
"C#Cc1c(F)ccc2cc(O)cc(-c3ncc4c(N5CC6CCC(C5)N6)nc(OC[C@H](C)N5CCC(CC6CCN(CC7CCN(c8ccc9c(c8F)CN(C8CCC(=O)NC8=O)C9=O)CC7)CC6)CC5)nc4c3F)c12 (stereo partly drawn) [Compound 194, 3-[5-[4-[[4-[[1-[(1S)-2-[4-(3,8-diazabicyclo[3.2.1]octan-3-yl)-7-(8-ethynyl-7-fluoro-3-hydroxy-1-naphthyl)-8-fluoro-pyrido[4,3-d]pyrimidin-2-yl]oxy-1-methyl-ethyl]-4-piperidyl]methyl]-1-piperidyl]methyl]-1-piperidyl]-4-fluoro-1-oxo-isoindolin-2-yl]piperidine-2,6-dione]",> 70%,< 5.1 µM
"C#Cc1c(F)ccc2cc(O)cc(-c3ncc4c(N5CC6CCC(C5)N6)nc(OC[C@H](C)N5CCC(CC6CCN(CC7CCN(c8ccc9c(c8)n(C(C)C)c(=O)n9C8CCC(=O)NC8=O)CC7)CC6)CC5)nc4c3F)c12 (stereo partly drawn) [Compound 195, 3-[5-[4-[[4-[[1-[(1S)-2-[4-(3,8-diazabicyclo[3.2.1]octan-3-yl)-7-(8-ethynyl-7-fluoro-3-hydroxy-1-naphthyl)-8-fluoro-pyrido[4,3-d]pyrimidin-2-yl]oxy-1-methyl-ethyl]-4-piperidyl]methyl]-1-piperidyl]methyl]-1-piperidyl]-3-isopropyl-2-oxo-benzimidazol-1-yl]piperidine-2,6-dione]",> 70%,< 5.1 µM
"C#Cc1c(F)ccc2cc(O)cc(-c3ncc4c(N5CC6CCC(C5)N6)nc(OCC5(CN6CCC(CC7CCN(CC8CCN(c9ccc%10c(c9)n(C)c(=O)n%10C9CCC(=O)NC9=O)CC8)CC7)CC6)CC5)nc4c3F)c12 (stereo not shown) [Compound 196, 3-[5-[4-[[4-[[1-[[1-[[4-(3,8-diazabicyclo[3.2.1]octan-3-yl)-7-(8-ethynyl-7-fluoro-3-hydroxy-1-naphthyl)-8-fluoro-pyrido [4,3-d]pyrimidin-2-yl]oxymethyl]cyclopropyl]methyl]-4-piperidyl]methyl]-1-piperidyl]methyl]-1-piperidyl]-3-methyl-2-oxo-benzimidazol-1-yl]piperidine-2,6-dione]",> 70%,< 5.1 µM
"C#Cc1c(F)ccc2cc(O)cc(-c3ncc4c(N5CC6CCC(C5)N6)nc(OCCN5CCC6(CC5)CCN(CC5CCN(c7ccc8c(c7F)n(C)c(=O)n8C7CCC(=O)NC7=O)CC5)CC6)nc4c3F)c12 (stereo not shown) [Compound 197, 3-(5-{4-[(9-{2-[(4-{3,8-diazabicyclo[3.2.1]octan-3-yl}-7-(8-ethynyl-7-fluoro-3-hydroxynaphthalen-1-yl)-8-fluoropyrido[4,3-d]pyrimidin-2-yl)oxy]ethyl}-3,9-diazaspiro[5.5]undecan-3-yl)methyl]piperidin-1-yl}-4-fluoro-3-methyl-2-oxo-2,3-dihydro-1H-1,3-benzodiazol-1-yl)piperidine-2,6-dione]",> 70%,< 5.1 µM
"C#Cc1c(F)ccc2cc(O)cc(-c3ncc4c(N5CC6CCC(C5)N6)nc(OCCN5CCC(F)(CC6CCN(CC7CCN(c8ccc9c(c8)n(C)c(=O)n9C8CCC(=O)NC8=O)CC7)CC6)CC5)nc4c3F)c12 (stereo not shown) [Compound 198, 3-[5-[4-[[4-[[1-[2-[4-(3,8-diazabicyclo[3.2.1]octan-3-yl)-7-(8-ethynyl-7-fluoro-3-hydroxy-1-naphthyl)-8-fluoro-pyrido[4,3-d]pyrimidin-2-yl]oxyethyl]-4-fluoro-4-piperidyl]methyl]-1-piperidyl]methyl]-1-piperidyl]-3-methyl-2-oxo-benzimidazol-1-yl]piperidine-2,6-dione]",> 70%,< 5.1 µM
"C#Cc1c(F)ccc2cc(O)cc(-c3ncc4c(N5CC6CCC(C5)N6)nc(OCCN5CCC(CC6CCN(CC7CCN(c8cc(F)c9c(c8F)n(C)c(=O)n9C8CCC(=O)NC8=O)CC7)CC6)CC5)nc4c3F)c12 (stereo not shown) [Compound 199, 3-{5-[4-({4-[(1-{2-[(4-{3,8-diazabicyclo[3.2.1]octan-3-yl}-7-(8-ethynyl-7-fluoro-3-hydroxynaphthalen-1-yl)-8-fluoropyrido[4,3-d]pyrimidin-2-yl)oxy]ethyl}piperidin-4-yl)methyl]piperidin-1-yl}methyl)piperidin-1-yl]-4,7-difluoro-3-methyl-2-oxo-2,3-dihydro-1H-1,3-benzodiazol-1-yl}piperidine-2,6-dione]",> 70%,< 5.1 µM
"C#Cc1c(F)ccc2cc(O)cc(-c3ncc4c(N5CC6CCC(C5)N6)nc(OCCN5CCC(F)(CN6CCN(CC7CCN(c8ccc9c(c8)n(C)c(=O)n9C8CCC(=O)NC8=O)CC7)CC6)CC5)nc4c3F)c12 (stereo not shown) [Compound 200, 3-[5-[4-[[4-[[1-[2-[4-(3,8-diazabicyclo[3.2.1]octan-3-yl)-7-(8-ethynyl-7-fluoro-3-hydroxy-1-naphthyl)-8-fluoro-pyrido[4,3-d]pyrimidin-2-yl]oxyethyl]-4-fluoro-4-piperidyl]methyl]piperazin-1-yl]methyl]-1-piperidyl]-3-methyl-2-oxo-benzimidazol-1-yl]piperidine-2,6-dione]",> 70%,< 5.1 µM
"C#Cc1c(F)ccc2cc(O)cc(-c3ncc4c(N5CC6CCC(C5)N6)nc(OC[C@@H]5C[C@@H](OC6CCN(CC7CCN(c8cc(F)c9c(c8F)n(C)c(=O)n9C8CCC(=O)NC8=O)CC7)CC6)CN5C)nc4c3F)c12 (stereo partly drawn) [Compound 201, 3-(5-{4-[(4-{[(3R,5S)-5-{[(4-{3,8-diazabicyclo[3.2.1]octan-3-yl}-7-(8-ethynyl-7-fluoro-3-hydroxynaphthalen-1-yl)-8-fluoropyrido[4,3-d]pyrimidin-2-yl)oxy]methyl}-1-methylpyrrolidin-3-yl]oxy}piperidin-1-yl)methyl]piperidin-1-yl}-4,7-difluoro-3-methyl-2-oxo-2,3-dihydro-1H-1,3-benzodiazol-1-yl)piperidine-2,6-dione]",> 70%,< 5.1 µM
